Like-named read-outs stand apart in the source and are kept apart here.
Tests used:
[1] = system: A375-NRAS^Q61K cells; assay: CTGlo Cell Viability Assay, A375-NRAS^Q61K (A375.11) cells, 96 hours; assay type: cell-based, human; details: Homo sapiens, 96 h, A375.11 (A375-NRAS^Q61K) cells; for Emax: lowest % viability achieved
Summary of the method: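 Viability as CellTiter-Glo ATP luminescence after 96 h compound exposure at 37 °C; A375.11 (BRAF V600E/NRAS Q61K) cells at 250/well, top final concentration 10 μM in half-log steps. Signal was background-corrected and set relative to DMSO controls. A 4-parameter logistic fit gave GI50 (50% crossing) and Emax.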

[2] = Example 6 pharmacokinetics assay for efficacy study (plasma, liver); assay type: in vivo, BALB/c nude mice; details: mouse, po, p.o., QD × 21 days
Description: For efficacy study, compounds were tested in the A375 human melanoma xenografts. Known BRAF inhibitors encorafenib, and dabrafenib were used as positive controls. Encorafenib and dabrafenib were administered to BALB/c nude mice bearing A375 tumors on PG-D1 and dosed PO daily (QD) for 3 weeks. Encorafenib was dosed at 35 mg/kg. Dabrafenib was dosed at 100 mg/kg. Compound 83, Compound 93, Compound 70, and Compound 54 were administered to BALB/c nude mice bearing A375 tumors on PG-DO and dosed PO twice per day (BID) for 3 weeks. Compound 83, Compound 93, Compound 70, and Compound 54 were dosed at 10 mg/kg.
The plasma samples were collected at predetermined time points for PK analysis. The mice were euthanized at predetermined time points post the treatment. The blood samples were collected into the 1.5 mL Eppendorf tubes containing 15 μL of 0.5 M EDTA-K2. And then the anticoagulant blood samples were centrifuged at 2,500 g at 4° C. for 15 minutes. The plasma samples were separated into 2 aliquots. The 1st was used for PK analysis, and the 2nd served as backup. The samples were stored at −80° C. before bioanalysis.
Liver samples were collected at predetermined time points for PK analysis. The left lobe of the liver was dissected out and split into 2 parts. The 1st part was used for PK analysis and the 2nd part served as the backup for the study. The samples were transferred into pre-labeled tubes and quickly froze in liquid nitrogen within 2 minutes after dissection. The samples were stored at −80° C. before bioanalysis.
For efficacy study, the harvested plasma and liver were processed for pharmacokinetics analysis by LC/MS/MS with a concentration range of 2.00-2000 ng/mL for Encorafenib and Dabrafenib in plasma, 0.20-200 ng/mL for Encorafenib and Dabrafenib in liver, 50.0-50000 ng/mL for compound 83 and compound 70 in plasma, 20.0-20000 ng/mL for Compound 93 and Compound 54 in plasma, 5.00-5000 ng/mL for compound 93, compound 83, compound 70 and compound 54 in liver.

Structure (SMILES) | GI50 [1] [µM] | Emax [1] [%] | other results
COC1CN(S(=O)(=O)Nc2ccc(F)c(Oc3ccc4ncn(C5CC6(CCN(C7CC8(C7)CN(c7cc9c(cc7F)c(N7CCC(=O)NC7=O)nn9C)C8)CC6)C5)c(=O)c4c3)c2C#N)C1 (centres unmarked) [Compound 280, N-[2-cyano-3-[3-[7-[2-[3-(2,4-dioxohexahydropyrimidin-1-yl)-5-fluoro-1-methyl-indazol-6-yl]-2-azaspiro[3.3]heptan-6-yl]-7-azaspiro[3.5]nonan-2-yl]-4-oxo-quinazolin-6-yl]oxy-4-fluoro-phenyl]-3-methoxy-azetidine-1-sulfonamide] | < 1 | < 50 | 
CO[C@@H]1CCN(S(=O)(=O)Nc2ccc(F)c(Oc3ccc4ncn(C5CC6(CCN(C7CC8(C7)CN(c7cc9c(cc7F)c(N7CCC(=O)NC7=O)nn9C)C8)CC6)C5)c(=O)c4c3)c2C#N)C1 (stereo partly drawn) [Compound 269, (3R)-N-[2-cyano-3-[3-[7-[2-[3-(2,4-dioxohexahydropyrimidin-1-yl)-5-fluoro-1-methyl-indazol-6-yl]-2-azaspiro[3.3]heptan-6-yl]-7-azaspiro[3.5]nonan-2-yl]-4-oxo-quinazolin-6-yl]oxy-4-fluoro-phenyl]-3-methoxy-pyrrolidine-1-sulfonamide] | < 1 | < 50 | 
COC(=O)N[C@@H](C)CNc1nccc(-c2cn(C(C)C)nc2-c2cc(Cl)cc(NS(C)(=O)=O)c2F)n1 [Encorafenib, encorafenib, reference compound] |  |  | concentration at 6 h ([2]; liver, 35 mg/kg, read-out: Concentration in Liver (mean ± SEM)): 481 ± 272 ng/g; concentration at 6 h ([2]; plasma, 35 mg/kg, read-out: Concentration in Plasma (mean ± SEM)): 0.992 ± 0.559 µg/mL
CC(C)(C)c1nc(-c2cccc(NS(=O)(=O)c3c(F)cccc3F)c2F)c(-c2ccnc(N)n2)s1 [Dabrafenib, dabrafenib, reference compound] |  |  | concentration at 6 h ([2]; liver, 100 mg/kg, read-out: Concentration in Liver (mean ± SEM)): 216 ± 30.8 ng/g; concentration at 6 h ([2]; plasma, 100 mg/kg, read-out: Concentration in Plasma (mean ± SEM)): 0.0861 ± 0.0154 µg/mL

Reference: patent US20260297060A1, “COMPOUNDS FOR THE DEGRADATION OF MUTANT BRAF” (C4 THERAPEUTICS, INC., priority 2023, published 2026)
